# Columns and labels:
# ACDase [1] = assay: Western blot of ACDase protein expression in human fibroblasts; type: cell-based; conditions: 16 hours
# Experimental: (§1) PMH from Npc1^+/+ and human Npc^+/+ control fibroblasts were treated with U18666A (2µg/ml) or HMβCD (2mM) for 16 hours. In some other cases, PMH from Npc1^-/- and Npc^-/- fibroblast from NPC patients were treated with HMβCD as above for control PMH.
# (§2) Fibroblasts from NPC patients were transfected with cDNA to overexpress ACDase (ASAH1) (SEQ ID NO: 5; MGC Human ASAH1 Sequence-Verified cDNA Accession: BC016481 Clone ID: 3923451) commercially purchased from GE Dharmacon. Transfection was performed using Lipofectamine2000 (Invitrogen). Briefly, 250000 fibroblasts were incubated with the transfection mixtures containing 250ng of the sobrexpression ACDase vector or the scrambled control-GFP vector. Cells were assayed 48 h after transfection for mRNA and protein levels. SEQ ID NO: 5 >ENA|BC016481|BC016481.1 Homo sapiens N-acylsphingosine amidohydrolase (acid ceramidase) 1, mRNA (cDNA clone MGC:9327 IMAGE:3923451), complete cds. [formula] [formula] [formula]
# (§3) 100mg of liver were homogenized with a pestle homogenizer in 1ml of homobuffer (70mM saccharose, 220mM mannitol, 2mM Tris-HCI pH 7.4, 0,1mM EDTA, 0.1% fatty acid free BSA) supplemented with protease and phosphatase inhibitors (Roche). Liver homogenates were diluted 4 times with RIPA lysis buffer (Sigma) with anti-proteases and anti-phosphatases. Cells were washed with PBS and lysed with ice-cold RIPA lysis buffer supplemented with protease and phosphatase inhibitors. Samples were incubated 15min at 4°C, vortexed and spinned down for 5min at 10000rpm. All supernatants were collected and quantified for protein concentration using Quick-Bradford reagent (Bio-Rad) and 20-50µg of protein were subjected to 4-12% SDS-polyacrylamide gel electrophoresis (SDS-PAGE) (Bio-Rad, XT-Criterion). Proteins were electrotransferred at 4°C onto Hybond ECL nitrocellulose membranes (Amersham) and 5% BSA solution in TBS-Tween was used to block the membranes for 1h at room temperature. […] Images were digitally captured by LAS4000 (GE Healthcare) and optical density was analyzed with ImageJ software.
# STARD1 [2] = assay: Western blot of STARD1 protein expression in human fibroblasts; type: cell-based; conditions: 16 hours
# Experimental: as §1, §2, §3
# ACDase [3] = assay: Western blot of ACDase protein expression in primary mouse hepatocytes; type: cell-based; conditions: 16 hours
# Experimental: as §1
# (§4) 100mg of liver were homogenized with a pestle homogenizer in 1ml of homobuffer (70mM saccharose, 220mM mannitol, 2mM Tris-HCI pH 7.4, 0,1mM EDTA, 0.1% fatty acid free BSA) supplemented with protease and phosphatase inhibitors (Roche). Liver homogenates were diluted 4 times with RIPA lysis buffer (Sigma) with anti-proteases and anti-phosphatases. Cells were washed with PBS and lysed with ice-cold RIPA lysis buffer supplemented with protease and phosphatase inhibitors. Samples were incubated 15min at 4°C, vortexed and spinned down for 5min at 10000rpm. All supernatants were collected and quantified for protein concentration using Quick-Bradford reagent (Bio-Rad) and 20-50µg of protein were subjected to 4-12% SDS-polyacrylamide gel electrophoresis (SDS-PAGE) (Bio-Rad, XT-Criterion). Proteins were electrotransferred at 4°C onto Hybond ECL nitrocellulose membranes (Amersham) and 5% BSA solution in TBS-Tween was used to block the membranes for 1h at room temperature. Membranes were incubated overnight with the following primary antibodies: anti-PDI (Cell Signaling, 24465), anti-CHOP (Cell Signaling, 2895S), anti-Phospho eiF2A (Cell Signaling, 9721S), anti-eiF2A (Cell Signaling, 9722) and anti-STARD1 (Abcam, ab58013), anti-BIP (Stressgen, SPA826), anti-XBP1 (Santa Cruz, CS-8015) and anti-Mln64 (Santa Cruz SC-292868), ACDAse (Sigma, SAB3500293), LRH-1 (Santa Cruz, Cs-393369) and anti-β-Actin HRP-conjugated (Sigma, A3854). Membranes were thoroughly washed with TBS-Tween and incubated for 45min with their respective HRP-conjugated secondary antibodies. Pierce ECL Western Blotting Substrate (Thermo Scientific) was used to develop the membranes. Images were digitally captured by LAS4000 (GE Healthcare) and optical density was analyzed with ImageJ software.
# MLN64 [4] = assay: Western blot of MLN64 protein expression in primary mouse hepatocytes; type: cell-based; conditions: HMβCD 2mM, 16 hours, co-treatment with U18666A; PMH from Npc1+/+ mice
# Experimental: as §1, §3
# MLN64 [5] = assay: Western blot of MLN64 protein expression in human fibroblasts; type: cell-based; conditions: HMβCD 2mM, 16 hours, co-treatment with U18666A; control Npc+/+ fibroblasts
# Experimental: as §1
# as §2, with “SEQ ID NO: 5 >ENA|BC016481|BC016481.1 Homo sapiens N-acylsphingosine amidohydrolase (acid ceramidase) 1, mRNA (cDNA clone MGC:9327 IMAGE:3923451), complete cds. [formula] [formula] [formula]” left out
# 100mg of liver were homogenized with a pestle homogenizer in 1ml of homobuffer (70mM saccharose, 220mM mannitol, 2mM Tris-HCI pH 7.4, 0,1mM EDTA, 0.1% fatty acid free BSA) supplemented with protease and phosphatase inhibitors (Roche). […] All supernatants were collected and quantified for protein concentration using Quick-Bradford reagent (Bio-Rad) and 20-50µg of protein were subjected to 4-12% SDS-polyacrylamide gel electrophoresis (SDS-PAGE) (Bio-Rad, XT-Criterion). […] Images were digitally captured by LAS4000 (GE Healthcare) and optical density was analyzed with ImageJ software.
# Npc+/+ fibroblasts = assay: Filipin and cytochrome c co-staining, confocal microscopy (mitochondrial cholesterol); type: cell-based, human; conditions: HMβCD 2mM, 16 hours, co-treatment with U18666A; Npc+/+ fibroblasts from control patients
# Experimental: (§5) Fibroblasts from patients with NPC disease used have been previously described (Torres et al., Redox Biol. 2017 Apr;11:60-72). Briefly, cultured human skin fibroblasts from control individuals (HSF; GM5659D) and patients with NPC disease were a generous gift from Thierry Levade, Laboratoire de Biochimie Metabolique, Institut Federatif de Biologie (CHU Toulouse, France) or obtained from Coriell Institute for Medical Research (GM03123, NJ, USA) and were grown at 37°C in 5% CO2. DMEM (Gibco) culture medium was supplemented with 10% fetal bovine serum (FBS, Gibco, 10-270-106) and 10.000U/ml Penicillin-Streptomycin (Gibco, 15140-122).
# as §1
# (§6) PMH were fixed for 15min with 3.7% paraformaldehyde and permeabilized for 5min with 0.2% saponin dissolved in 0.5% BSA-fatty acid free (FAF) in PBS commercial buffer. Cells were blocked with 1% BSA FAF for 15minutes. […] Percentage of cholesterol mass containing mitochondria was analyzed with the Colocalization nBits nimages plugin (Confocal Microscopy Unit, Facultad de Medicina, Universidad de Barcelona) in the ImageJ Software in 5 consecutive images of each experimental condition.
# PMH from Npc1+/+ mice [6] = assay: as above; type: cell-based, mouse; conditions: 16 hours
# Experimental: (§7) PMH were isolated by collagenase perfusion at a flow rate of 7-9ml/min and cultured at a density of 2×10^5 cells in 12-well plates coated with rat tail collagen. Hepatocytes were cultured in DMEM/F12 culture media (Gibco, 21331-020) supplemented with 10% FBS for the first 3 hours post isolation, together with 10.000U/ml Penicillin-Streptomycin (Gibco, 15140-122), 200mM L-Glutamine (Gibco, 25030-024), 7.5mM D-Glucose (Sigma, G6152) and 150mM Hepes pH 7.4 (Sigma,). For subsequent treatments, FBS was replaced for 1mM methionine (Sigma, M5308).
# as §1
# (§8) PMH were fixed for 15min with 3.7% paraformaldehyde and permeabilized for 5min with 0.2% saponin dissolved in 0.5% BSA-fatty acid free (FAF) in PBS commercial buffer. Cells were blocked with 1% BSA FAF for 15minutes. Cytochrome c (Cytc) (BD Pharmigen, #556432) and Lamp2 (Abcam, #ab13524) primary antibodies were incubated overnight in BSA 1% followed by a secondary antibody for 1 hour at room temperature in BSA 0.1%. Filipin ([…], Sigma) was added during the secondary antibody incubation and the following steps were performed in the dark. Stained samples were embedded in fluoromont (Sigma) and digital images were taken in a Leica SP2 laser scanning confocal microscope equipped with UV excitation, an argon laser, a 633/1.32 OIL PH3 CS objective and a confocal pinhole set at 1 Airy unit. All the confocal images shown were single optical sections. Scale bar represents 25 µm. Percentage of cholesterol mass containing mitochondria was analyzed with the Colocalization nBits nimages plugin (Confocal Microscopy Unit, Facultad de Medicina, Universidad de Barcelona) in the ImageJ Software in 5 consecutive images of each experimental condition.
# PMH from Npc1-/- mice = assay: as above; type: cell-based, mouse; conditions: HMβCD 2mM, 16 hours
# Experimental: as §7, §1, §8
# [7] = test system: Npc-/- fibroblasts from NPC patients; assay: as above; type: cell-based, human; conditions: HMβCD 2mM, 16 hours
# Experimental: as §5
# PMH from Npc1^+/+ and human Npc^+/+ control fibroblasts were treated with U18666A (2µg/ml) or HMβCD (2mM) for 16 hours. In some other cases, PMH from Npc1^-/- and Npc^-/- fibroblast from NPC patients were treated with HMβCD as above for control PMH. […]
# as §6, with “buffer.” for “buffer. Cells were blocked with 1% BSA FAF for 15minutes.”
# NPC child patients = conditions: intravenous instillation 2500 mg/kg per time, 1 to 3 times per week, more than 1 year; cited from earlier work
# STARD1 [8] = assay: Western blot of STARD1 protein expression in primary mouse hepatocytes; type: cell-based; conditions: 16 hours
# Experimental: as §1, §4
# [9] = test system: Npc1 gene-defective (Npc1-/-) mice; conditions: cited from earlier work
# ER stress markers = assay: Western blot of ER stress markers in primary mouse hepatocytes; type: cell-based; conditions: incubation of Npc1+/+ PMH with U18666A
# Experimental: as §1, §3
# PMH from Npc1+/+ mice [10] = assay: Filipin and Lamp2 co-staining, confocal microscopy (lysosomal cholesterol); type: cell-based, mouse; conditions: U18666A 2µg/ml, 16 hours
# Experimental: as §7, §1, §6
# patients = conditions: NPC patients; cited from earlier work
# [11] = test system: ER stress markers (BIP, PDI and CHOP); assay: Western blot of ER stress markers in human fibroblasts; type: cell-based; conditions: control Npc+/+ fibroblasts
# Experimental: as §3
# [12] = HMβCD 2mM, co-treatment with U18666A, control Npc+/+ fibroblasts
# [13] = HMβCD 2mM, Npc-/- fibroblasts from NPC patients, no U18666A
# [14] = HMβCD 2mM, co-treatment with U18666A, PMH from Npc1+/+ mice
# [15] = HMβCD 2mM, PMH from Npc1-/- mice, no U18666A
# [16] = U18666A 2µg/ml, PMH from Npc1+/+ mice
molecule,measurement,setting,value
"CC(O)COC[C@H]1O[C@@H]2O[C@H]3[C@H](O)[C@@H](O)[C@@H](O[C@H]4[C@H](O)[C@@H](O)[C@@H](O[C@H]5[C@H](O)[C@@H](O)[C@@H](O[C@H]6[C@H](O)[C@@H](O)[C@@H](O[C@H]7[C@H](O)[C@@H](O)[C@@H](O[C@H]8[C@H](O)[C@@H](O)[C@@H](O[C@H]1[C@H](O)[C@H]2O)O[C@@H]8COCC(C)O)O[C@@H]7COCC(C)O)O[C@@H]6COCC(C)O)O[C@@H]5COCC(C)O)O[C@@H]4COCC(C)O)O[C@@H]3COCC(C)O (stereo partly drawn) [HMβCD, 2-hydroxypropyl-β-cyclodextrin]",repression of ACDase induced by U18666A,ACDase [1]; [12],reverse the increase of STARD1 and the repression of ACDase
same,expression levels of ACDase,ACDase [1]; [13],exhibited the same changes induced by HMβCD
same,increase of STARD1 induced by U18666A,STARD1 [2]; [12],reverse the increase of STARD1
same,expression levels of STARD1,STARD1 [2]; [13],exhibited the same changes induced by HMβCD
same,repression of ACDase induced by U18666A,ACDase [3]; [14],reverse the increase of STARD1 and the repression of ACDase
same,expression levels of ACDase,ACDase [3]; [15],exhibited the same changes induced by HMβCD
same,increased expression of MLN64 induced by U18666A,MLN64 [4],prevented the increased expression of MLN64
same,increased expression of MLN64 induced by U18666A,MLN64 [5],prevented the increased expression of MLN64
same,U18666A-induced cholesterol accumulation and trafficking to mitochondria,Npc+/+ fibroblasts,prevented U18666A-induced cholesterol accumulation and trafficking to mitochondria
same,U18666A-induced cholesterol accumulation and trafficking to mitochondria,PMH from Npc1+/+ mice [6]; [14],prevented U18666A-induced cholesterol accumulation and trafficking to mitochondria
same,mitochondrial cholesterol increase,PMH from Npc1-/- mice,exhibited the same changes induced by HMβCD
same,mitochondrial cholesterol increase,[7],exhibited the same changes induced by HMβCD
same,nervous symptom,NPC child patients,saw no improvement
same,side effects,NPC child patients,severe side effects have been observed
same,splenomegaly and brain wave,NPC child patients,certain effect of reduction of splenomegaly and improvement in a brain wave
same,increase of STARD1 induced by U18666A,STARD1 [8]; [14],reverse the increase of STARD1
same,expression levels of STARD1,STARD1 [8]; [15],exhibited the same changes induced by HMβCD
same,"improving effect, direct administration into the brain compared with systemic administration","[9]; directly administered into the brain, Npc1-/- mice",increased a few hundred times
same,medical state or survival,"[9]; intravenously administered, Npc1-/- mice",effective in improving the medical state or prolonging survival
same,crossing of the blood brain barrier,"[9]; mouse, in vivo",inability of HPBCD to cross the blood brain barrier
CCN(CC)CCO[C@H]1CC[C@@]2(C)C(=CC[C@@H]3[C@@H]2CC[C@]2(C)C(=O)CC[C@@H]32)C1 [U18666A],expression of ACDase,"ACDase [1]; U18666A 2µg/ml, control Npc+/+ fibroblasts",decreased the expression of ACDase
same,STARD1 expression,"STARD1 [2]; U18666A 2µg/ml, Npc+/+ fibroblasts",significantly increased STARD1
same,expression of ACDase,ACDase [3]; [16],decreased the expression of ACDase
same,ER stress markers,ER stress markers,failed to induce ER stress markers
same,lysosomal cholesterol accumulation (filipin and Lamp2 staining),PMH from Npc1+/+ mice [10],significantly increased lysosomal cholesterol accumulation
same,accumulation of cholesterol in mitochondria (colocalization of filipin and CytC staining),"PMH from Npc1+/+ mice [6]; U18666A 2µg/ml, Npc1+/+ PMH",stimulated the accumulation of cholesterol in mitochondria
same,STARD1 expression,STARD1 [8]; [16],significantly increased STARD1
CCCCN1C[C@H](O)[C@@H](O)[C@H](O)[C@H]1CO [miglustat],life span of patients,patients,extends the life span of patients
tunicamycin,"markers of ER stress (BIP, PDI and CHOP)",[11],induced markers of ER stress
